Measurements: US10350152B2, “Skin whitening composition, and method for screening for materials having skin whitening effect” (AMOREPACIFIC CORPORATION, priority 2015, dated 2019)

Tests used:
Normal human melanocytes = assay: Amount of secretion of exosomes from UVB-irradiated melanocytes (exosome marker CD81, western blot); assay type: cell-based; conditions: 10 μM, treated for 12 hours before UVB exposure (20 mJ/cm^2), cultured 24 hours
Experimental: Normal human melanocytes (Cascade Biologics, Portland, Oreg., USA) were kept in M-254 medium (Cascade) containing a human melanocyte growth supplement (Cascade). GW4869 (Santa Cruz Biotechnology, Santa Cruz, Calif., USA) and pifithrin-μ (Sigma, St. Louis, Mo., USA) were dissolved in DMSO for use. For isolation of exosomes, confluent melanocytes were washed with PBS and cultured in M-254 for 48 hours. Conditioned medium was collected and centrifuged at 500×g for 10 minutes, 3,000×g for 20 minutes, and 100,000×g for 2 hours. The resultant exosome-containing pellet was resuspended in PBS and stored at −80° C. Also, conditioned medium was purified by filtration through a 0.45 μm pore filter (Millipore, Billerica, Mass., USA) and concentrated using a 100 kDa cut-off spin column (Millipore). Exosomes were isolated using the ExoQuick-TC kit (SBI, San Jose, Calif., USA) according to the manufacturer's instructions. 20 μl of isolated exosomes were analyzed by western blot and silver staining. Cells or isolated exosomes were lysed with lysis buffer (1% NP-40, 0.05 M Tris-HCl, pH 7.5, 0.15 M NaCl, and 0.01 M MgCl2) containing protease inhibitors (Sigma). Protein concentrations were determined using BCA assays, and samples were […] by SDS-PAGE, transferred to a PVDF membrane, and probed with antibodies against CD81 (SBI). […]

melanocytes = assay: Viability of melanocytes cultured with exosomes (crystal violet cytotoxicity test); assay type: cell-based, human; conditions: exosomes from melanocytes treated with ultraviolet rays together with inhibitor; recipient melanocytes irradiated with UVB 20 mJ/cm^2, cultured 3 days
Experimental: Normal human melanocytes (Cascade Biologics, Portland, Oreg., USA) were kept in M-254 medium (Cascade) containing a human melanocyte growth supplement (Cascade). GW4869 (Santa Cruz Biotechnology, Santa Cruz, Calif., USA) and pifithrin-μ (Sigma, St. Louis, Mo., USA) were dissolved in DMSO for use. Melanocytes were seeded in a 6-well plate at a density of 1×10^4 cells/well. The next day, 10 μl of exosomes isolated from the same number of cells were treated. Cells were fixed with 4% formaldehyde in PBS for 15 minutes, washed with PBS and stained with 0.1% crystal violet for 20 minutes. After washing with PBS, the cells were dried and lysed with 10% acetic acid. The absorbance was measured at 590 nm using a spectrophotometer. Each of the exosomes obtained from UVB-untreated melanocytes, UVB-treated melanocytes, or UVB- and GW4869-treated melanocytes, together with melanocytes, were irradiated with UVB (20 mJ/cm^2), and cultured for 3 days.

Structure (SMILES) | amount of expression of the exosome marker CD81 (Normal human melanocytes) | effect of exosomes from UVB- and inhibitor-treated melanocytes on viability of ultraviolet-irradiated melanocytes (melanocytes)
Cl.Cl.O=C(/C=C/c1ccc(/C=C/C(=O)Nc2ccc(C3=NCCN3)cc2)cc1)Nc1ccc(C2=NCCN2)cc1 [GW4869] | decreased | reduced effect in the enhancement of the viability of melanocytes
NS(=O)(=O)C#Cc1ccccc1 [pifithrin-μ] | decreased | reduced effect in the enhancement of the viability of melanocytes
